Assays:
Type in all cases: cell-based, human
[1] = tested on: fibrocytes obtained from exacerbating COPD patients; experiment: plasma-induced fibrocyte migration, modified Boyden chamber assay
Protocol: (§1) Purification of nonadherent non-T (NANT) cells was performed. Briefly, peripheral blood mononuclear cells (PBMC) were separated from whole blood by Ficoll-Hypaque density gradient centrifugation. After the first centrifugation at 150 g for 15 min, the top plasma layer was harvested and kept at −80° C. for further analysis. Mononuclear cells at the interface were harvested, washed once with 1×PBS. Erythrocyte lysis was performed by adding 20 ml of hypotonic 0.2% NaCl solution during 30s, followed by adding 20 ml of 1.6% NaCl to end with an isotonic solution. Mononuclear cells were again washed with 1×PBS, resuspended in Dulbecco's modified Eagle medium (DMEM), 4.5 g/l glucose, L-glutamine, supplemented with 20% fetal bovine serum (FBS), penicillin/streptomycin and MEM non essential amino acid and incubated 1 h at 37° C. The non-adherent mononuclear cell fraction was taken and washed in cold 1×PBS 0.5% BSA, 2 mM EDTA. T-cells were further depleted with anti-CD3 monoclonal antibody (Miltenyi Biotech). At least 0.2×10^6 nonadherent non-T (NANT) cells were distributed in each FACS tube and fixed overnight with Cytofix/Cytoperm (eBioscience).
(§2) Fibrocyte migration was assessed using a modified Boyden chamber assay. The transwell inserts (pore size 8 μm) and the wells were coated for 1 h at room temperature with poly-lysine-ethylene glycol (PEG-PLL, Susos) to prevent cell adhesion. The inserts and the wells were rinsed with PBS. 0,3.10^6 nonadherent non-T (NANT) cells resuspended in 0.2 ml […] DMEM, 4.5 g/l glucose, L-glutamine, supplemented with ITS, penicillin/streptomycin and MEM non essential amino acid were added to the upper compartment of each well. When indicated, NANT cells were pretreated for 1 h at 37° by 25 μg/ml plerixafor (Sigma-Aldrich) or 10 μM SB 328437 (R&D Systems) before being added to the upper compartment. Recombinant human CXCL12 (25 ng/ml to 200 ng/ml; R&D Systems), recombinant human CCL11 (25 ng/ml to 200 ng/ml; R&D Systems) or plasma (50% dilution) extracted from blood coming from COPD V1 patient or control subject was added to the bottom compartment of each well. After about 12 h, the content of bottom compartment was removed to assess fibrocyte migration by flow cytometry using double labeling CD45-collagen I. To obtain absolute values of migratory cells, flow cytometric counts for each condition were obtained during a constant predetermined time period (1 min). The fraction of migratory fibrocytes was defined by the ratio between the number CD45+coll I+ cells counted in the bottom chamber divided by the number of CD45+coll I+ cells added in the upper compartment. These values were normalized to the fraction of migratory fibrocytes obtained in the basal condition (medium only).

[2] = tested on: fibrocytes obtained from normal subjects; experiment: as above
Protocol: as §1, §2

fibrocytes = experiment: fibrocyte migration in response to recombinant chemokine (CXCL12, CCL11), modified Boyden chamber assay
Protocol: as §1
Fibrocyte migration was assessed using a modified Boyden chamber assay. The transwell inserts (pore size 8 μm) and the wells were coated for 1 h at room temperature with poly-lysine-ethylene glycol (PEG-PLL, Susos) to prevent cell adhesion. The inserts and the wells were rinsed with PBS. 0,3.10^6 nonadherent non-T (NANT) cells resuspended in 0.2 ml […] DMEM, 4.5 g/l glucose, L-glutamine, supplemented with ITS, penicillin/streptomycin and MEM non essential amino acid were added to the upper compartment of each well. […] The fraction of migratory fibrocytes was defined by the ratio between the number CD45+coll I+ cells counted in the bottom chamber divided by the number of CD45+coll I+ cells added in the upper compartment. […]

## c1cc(CN2CCCNCCNCCCNCC2)ccc1CN1CCCNCCNCCCNCC1 [Plerixafor]
[1]; plasma of exacerbating COPD patients (50% dilution), cells pretreated 1 h with 25 μg/ml plerixafor, about 12 h, FIG. 5A
  plasma-induced recruitment of fibrocytes: significant reduction
[2]; fibrocytes from normal (control) subjects, plasma of exacerbating COPD patients (50% dilution), cells pretreated 1 h with 25 μg/ml plerixafor, about 12 h, FIG. 5A
  plasma-induced migration of fibrocytes: no significant reduction
fibrocytes; CXCL12 alpha-induced migration, cells pretreated 1 h with 25 μg/ml plerixafor, FIG. 5D
  fibrocyte migration in response to CXCL12 in presence of antagonist: completely abolished

## CXCL12 alpha: recombinant human CXCL12 (R&D Systems), chemokine ligand of CXCR4
fibrocytes; 100 ng/ml chemokine, FIG. 5C
  migration of fibrocytes from exacerbating COPD patient compared to fibrocytes from control subjects: significantly higher migration
fibrocytes; recombinant human chemokine 25 ng/ml to 200 ng/ml in bottom compartment, about 12 h, FIG. 5C, Figure E3C
  migratory response of fibrocytes to increasing concentrations of chemokine: induced a significant fibrocytes migration in a dose-dependent manner

## COC(=O)[C@H](Cc1ccc([N+](=O)[O-])cc1)NC(=O)c1ccc2ccccc2c1 [SB 328437, (S)-methyl-2-naphthoylamino-3-(4-nitrophenyl) propionate]
[1]; plasma of exacerbating COPD patients, cells pretreated 1 h with 10 μM SB 328437, Figure E3A (FIG. 8A)
  plasma-induced migration of fibrocytes: not affected
[2]; fibrocytes from control subjects, plasma of exacerbating COPD patients, cells pretreated 1 h with 10 μM SB 328437, Figure E3A (FIG. 8A)
  plasma-induced migration of fibrocytes: not affected
